Data as given in paper PMC9549944, “In vitro and in silico assessment of new beta amino ketones with antiplasmodial activity” (Revista da Sociedade Brasileira de Medicina Tropical, 2022).
Like-named read-outs stand apart in the source and are kept apart here.

System: P. falciparum strain W2 (chloroquine-resistant)
Assay: In vitro antiplasmodial activity, SYBR Green-based assay
Assay type: cell-based
Conditions: for SI (selectivity index): ratio LD50 (WI-26VA4) / IC50 (P. falciparum W2)
Protocol: Ring-stage parasites were equally distributed in 96-well microculture plates. Serial dilutions of the compounds were performed ranging from 0.01 to 100 μg/mL. […] A fluorometer (Fluoroskan Ascent, Thermo Laboratories) with excitation at 485 nm and emission at […] was used to determine the viability of the parasites. All experiments were performed in triplicates.
Selectivity index (SI) is the ratio between the values of LD50 and IC50 […] of each compound tested.
IC50 and LD50 were determined using the equation of the curve obtained by plotting parasitemia reduction (%) or cellular death (%) vs. the concentration of the compound (log scale) using the GraphPad Prism software (version 5.0 for Windows, San Diego, California, USA). Due to the non-normality of the data distribution, the comparison of IC50 and LD50 between morpholine and piperidine was analyzed using the nonparametric Mann-Whitney U test. Statistical significance was defined at 5% (p<0.05).

[1] = Plasmodium falciparum, W2, read-out: IC50 ± SD (drug concentration that reduced parasite viability in 50%), P. falciparum W2 chloroquine-resistant, SYBR, mean and SD of triplicate experiments
[2] = read-out: IC50 ± SD (drug concentration that reduced parasite viability in 50%), P. falciparum W2 chloroquine-resistant, SYBR, mean and SD of triplicate experiments

Row | Structure (SMILES) | IC50 [1] [nM] | SI (selectivity index) | IC50 [2] [nM] | IC50 (Plasmodium falciparum, W2, read-out: IC50 ± SD (drug concentration that reduced parasite viability in 50%)) [nM]
1 | CCCCCCC(CN1CCCCC1)C(C)=O (stereo not drawn) [Compound 8, 3[(piperdin-1-yl)methyl]nonan-2-one] | 48000 ± 18500 | 0.81 |  | 
2 | O=C(CCN1CCCCC1)c1ccccc1 [Compound 2, 1-phenyl-3-(piperidin-1-yl)propan-1-one] | < 3590 | 9.46 | 3590 ± 80 | 
3 | O=C(CCN1CCOCC1)c1ccccc1 [Compound 1, 3-(morpholin-4-yl)-1-phenylpropan-1-one] | < 980 |  | 980 ± 10 | 
4 | CC(CN1CCCCC1)C(=O)c1ccccc1 (stereo not drawn) [Compound 4, 2-methyl-1-phenyl-3-(piperidein-1-yl)propan-1-one] | > 1000 |  | 780 ± 90 | 
5 | CC(CN1CCOCC1)C(=O)c1ccccc1 (stereo not drawn) [Compound 3, 2-methyl-3-(morpholin-4-yl)-1-phenylpropan-1-one] | 32530 ± 20 | > 3.07 |  | 
6 | CCN(CC)CCCC(C)Nc1ccnc2cc(Cl)ccc12 (stereo not drawn) [Chloroquine (CQ), Chloroquine, reference compound] |  |  |  | 920 ± 10
